Where a name gives a salt, the structure may show the parent alone.
Legend:
[1] = target: rhIDO (recombinant human IDO) (Homo sapiens, UniProt P14902); test: Enzyme assay using rhIDO (rate of kynurenine production); assay type: biochemical; conditions: 2 h; final concentration of the compound 10 μM; rate relative to reaction without compound; read-out: rhIDO-mediated kynurenine production
Method in brief: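 Kynurenine formation, expressed as % of uncompounded reaction after background subtraction, was read by absorbance at 490 nm following TCA stop, 50 °C hydrolysis and Ehrlich-type p-dimethylbenzaldehyde staining. Recombinant human IDO with ascorbate/methylene blue/catalase was pre-exposed to compound 10 min, then reacted 120 min at 37 °C after adding 2 mM tryptophan stock.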

[2] = target: T1, IDO in A431 cells (Homo sapiens, UniProt P14902); test: IDO cell-based assay, kynurenine production in IFN-γ stimulated A431 cells; conditions: A-431, 24 h; final concentration of the compound 10 μM; rate relative to culture without compound
T1 construct: endogenous in cells; host or cells: A431 cells, IFN-γ stimulated
Method in brief: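 Kynurenine output was read by absorbance at 460 nm after p-dimethylbenzaldehyde/trichloroacetic acid reagent, background-corrected, and given as % of untreated wells. Before the read, cells in 178 μM L-tryptophan medium had 1 h compound preincubation, then 24 h IFN-γ stimulation (added as 100 ng/mL dilution).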

[3] = target: rhTDO (recombinant human TDO) (Homo sapiens, UniProt P48775); test: Enzyme assay using rhTDO (rate of kynurenine production); assay type: biochemical; conditions: 2 h; final concentration of the compound 10 μM; rate relative to reaction without compound; read-out: rhTDO-mediated kynurenine production
Method in brief: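 Kynurenine output, as percent of untreated control after background subtraction, read at 490 nm with p-dimethylbenzaldehyde following TCA quench and 15 min heating at 50 °C. Reaction: rhTDO with compound, 10 min preincubation then 120 min at 37 °C, started by 20 mM tryptophan stock, in phosphate/ascorbate/methylene blue/catalase.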

[4] = target: T2, TDO in A172 cells (Homo sapiens, UniProt P48775); test: TDO cell-based assay, kynurenine production in A172 cells; conditions: A 172; final concentration of the compound 10 μM; rate relative to culture without compound
T2 construct: endogenous in cells; host or cells: A172 cells
Method in brief: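 A172 cells were preincubated with compound for 1 h, then given L-tryptophan (final 524 μM) for 24 h at 37 °C. Kynurenine was read at 460 nm after p-dimethylbenzaldehyde/TCA reagent, background-subtracted, and expressed as % of no-compound production.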

Sequence of rhIDO (recombinant human IDO) (P14902 whole entry): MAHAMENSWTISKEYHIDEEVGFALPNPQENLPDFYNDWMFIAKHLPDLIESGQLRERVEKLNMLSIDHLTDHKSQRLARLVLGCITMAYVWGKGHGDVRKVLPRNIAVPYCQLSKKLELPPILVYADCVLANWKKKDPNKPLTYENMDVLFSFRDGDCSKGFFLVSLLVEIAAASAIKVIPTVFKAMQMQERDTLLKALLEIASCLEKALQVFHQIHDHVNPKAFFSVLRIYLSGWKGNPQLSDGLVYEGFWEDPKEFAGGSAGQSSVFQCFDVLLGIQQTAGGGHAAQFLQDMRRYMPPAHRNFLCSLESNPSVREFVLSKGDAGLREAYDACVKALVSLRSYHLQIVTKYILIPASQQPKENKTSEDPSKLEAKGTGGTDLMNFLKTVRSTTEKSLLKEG
T1 sequence (P14902 whole entry): as above
Sequence of rhTDO (recombinant human TDO) (P48775 whole entry): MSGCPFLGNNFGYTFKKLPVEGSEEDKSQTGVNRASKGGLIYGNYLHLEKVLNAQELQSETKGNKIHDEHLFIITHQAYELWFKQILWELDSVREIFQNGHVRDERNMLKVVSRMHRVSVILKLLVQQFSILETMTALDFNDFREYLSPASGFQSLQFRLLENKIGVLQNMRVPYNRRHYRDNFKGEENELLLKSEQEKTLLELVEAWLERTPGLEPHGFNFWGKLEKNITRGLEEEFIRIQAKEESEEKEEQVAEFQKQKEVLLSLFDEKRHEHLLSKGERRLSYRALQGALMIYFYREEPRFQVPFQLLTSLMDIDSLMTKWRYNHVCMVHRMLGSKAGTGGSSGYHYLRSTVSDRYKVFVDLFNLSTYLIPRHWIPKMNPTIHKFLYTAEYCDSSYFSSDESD
T2 sequence (P48775 whole entry): as above

Row | Compound | remaining activity at 10 µM [1] [%] | remaining activity at 10 µM [2] [%] | remaining activity at 10 µM [3] [%] | remaining activity at 10 µM [4] [%]
1 | N/C(=N\c1ccc(Br)cc1)SCc1ccc(F)cc1CS/C(N)=N/c1ccc(Br)cc1 [Compound 126, (4-Fluoro-1,2-phenylene)bis(methylene) (E,E)-bis(N′-(4-bromophenyl)carbamimidothioate) dihydrobromide] | -1 | 13 | 6 | 10
2 | N/C(=N\c1ccc(F)cc1)SCc1ccc(F)cc1CS/C(N)=N/c1ccc(F)cc1 [Compound 127, (4-Fluoro-1,2-phenylene)bis(methylene) (E,E)-bis(N′-(4-fluorophenyl)carbamimidothioate) dihydrobromide] | 0 | 8 | 12 | 10
3 | COc1ccc(/N=C(\N)SCc2ccc(F)cc2CS/C(N)=N/c2ccc(OC)cc2)cc1 [Compound 128, (4-Fluoro-1,2-phenylene)bis(methylene) (E,E)-bis(N′-(4-methoxyphenyl)carbamimidothioate) dihydrobromide] | 3 | 11 | 14 | 8
4 | N/C(=N\c1ccc(F)c(Cl)c1)SCc1ccc(F)cc1CS/C(N)=N/c1ccc(F)c(Cl)c1 [Compound 129, (4-Fluoro-1,2-phenylene)bis(methylene) (E,E)-bis(N′-(3-chloro-4-fluorophenyl)carbamimidothioate) dihydrobromide] | -2 | 7 | 8 | 14
5 | N/C(=N\c1ccc(F)cc1F)SCc1ccc(F)cc1CS/C(N)=N/c1ccc(F)cc1F [Compound 130, (4-Fluoro-1,2-phenylene)bis(methylene) (E,E)-bis(N′-(2,4-difluorophenyl)carbamimidothioate) dihydrobromide] | 1 | 1 | 8 | 9
6 | N=C(N)SCc1cc(F)c(F)cc1CSC(=N)N [Compound 131, (4,5-Difluoro-1,2-phenylene)bis(methylene) dicarbamimidothioate dihydrobromide] | 7 | 5 | 3 | 6
7 | N/C(=N\c1ccc(Cl)cc1)SCc1cc(F)c(F)cc1CS/C(N)=N/c1ccc(Cl)cc1 [Compound 132, (4,5-Difluoro-1,2-phenylene)bis(methylene) (E,E)-bis(N′-(4-chlorophenyl)carbamimidothioate) dihydrobromide] | -2 | 11 | 5 | 5
8 | Fc1ccc(CSC2=NCN(CCc3ccc(Cl)c(Cl)c3)CN2)c(CSC2=NCN(CCc3ccc(Cl)c(Cl)c3)CN2)c1 [Compound 133, 6,6′-(((4-Fluoro-1,2-phenylene)bis(methylene))bis(sulfanediyl))bis(3-(3,4-dichlorophenethyl)-1,2,3,4-tetrahydro-1,3,5-triazine)] | 1 | 13 | 10 | 6
9 | N/C(=N\c1ccc(F)c(Cl)c1)SCc1cc(Cl)c(Cl)cc1CS/C(N)=N/c1ccc(F)c(Cl)c1 [Compound 134, (4,5-Dichloro-1,2-phenylene)bis(methylene) (E,E)-bis(N′-(3-chloro-4-fluorophenyl)carbamimidothioate) dihydrobromide] | -2 | 10 | 5 | 5
10 | N/C(=N\c1ccc(Br)cc1)SCc1cc(Cl)c(Cl)cc1CS/C(N)=N/c1ccc(Br)cc1 [Compound 135, (4,5-Dichloro-1,2-phenylene)bis(methylene) (E,E)-bis(N′-(4-bromophenyl)carbamimidothioate) dihydrobromide] | -2 | 12 | 8 | 0
11 | N/C(=N\c1cccc(Br)c1)SCc1cc(Cl)c(Cl)cc1CS/C(N)=N/c1cccc(Br)c1 [Compound 136, (4,5-Dichloro-1,2-phenylene)bis(methylene) (E,E)-bis(N′-(3-bromophenyl)carbamimidothioate) dihydrobromide] | -2 | 13 | 10 | 3
12 | N/C(=N\c1ccc(F)cc1)SCc1cc(Cl)c(Cl)cc1CS/C(N)=N/c1ccc(F)cc1 [Compound 137, (4,5-Dichloro-1,2-phenylene)bis(methylene) (E,E)-bis(N′-(4-fluorophenyl)carbamimidothioate) dihydrobromide] | -3 | 8 | 9 | 2
13 | Cc1ccc(/N=C(\N)SCc2cc(Cl)c(Cl)cc2CS/C(N)=N/c2ccc(C)cc2)cc1 [Compound 138, (4,5-Dichloro-1,2-phenylene)bis(methylene) (E,E)-bis(N′-(p-tolyl)carbamimidothioate) dihydrobromide] | -1 | 8 | 14 | 0
14 | Fc1ccc(CN2CN=C(SCc3cc(Cl)c(Cl)cc3CSC3=NCN(Cc4ccc(F)c(Cl)c4)CN3)NC2)cc1Cl [Compound 139, 6,6′-(((4,5-Dichloro-1,2-phenylene)bis(methylene))bis(sulfanediyl))bis(3-(3-chloro-4-fluorobenzyl)-1,2,3,4-tetrahydro-1,3,5-triazine)] | 24 | 8 | 14 | 11
15 | Fc1ccc(CSC2=NCN(CCc3ccc(C(F)(F)F)cc3)CN2)c(CSC2=NCN(CCc3ccc(C(F)(F)F)cc3)CN2)c1 [Compound 140, 6,6′-(((4-Fluoro-1,2-phenylene)bis(methylene))bis(sulfanediyl))bis(3-(4-(trifluoromethyl)phenethyl)-1,2,3,4-tetrahydro-1,3,5-triazine)] | 34 | 15 | 16 | 9
16 | FC(F)(F)c1ccc(CCN2CN=C(SCc3ccc(Br)cc3CSC3=NCN(CCc4ccc(C(F)(F)F)cc4)CN3)NC2)cc1 [Compound 141, 6,6′-(((4-Bromo-1,2-phenylene)bis(methylene))bis(sulfanediyl))bis(3-(4-(trifluoromethyl)phenethyl)-1,2,3,4-tetrahydro-1,3,5-triazine)] | 21 | 5 | 14 | 11
17 | FC(F)(F)c1ccc(CCN2CN=C(SCc3ccccc3CSC3=NCN(CCc4ccc(C(F)(F)F)cc4)CN3)NC2)cc1 [Compound 142, 1,2-Bis (((5-(4-(Trifluoromethyl)phenethyl)-1,4,5,6-tetrahydro-1,3,5-triazin-2-yl)thio)methyl)benzene] | 43 | 16 | 18 | 6
18 | FC(F)(F)c1ccc(CCN2CN=C(SCc3cc(Cl)c(Cl)cc3CSC3=NCN(CCc4ccc(C(F)(F)F)cc4)CN3)NC2)cc1 [Compound 143, 6,6′-(((4,5-Dichloro-1,2-phenylene)bis(methylene))bis(sulfanediyl))bis(3-(4-(trifluoromethyl)phenethyl)-1,2,3,4-tetrahydro-1,3,5-triazine)] | 17 | 9 | 6 | 7
19 | Fc1ccc(CN2CN=C(SCc3ccc(Br)cc3CSC3=NCN(Cc4ccc(F)c(Cl)c4)CN3)NC2)cc1Cl [Compound 144, 6,6′-(((4-Bromo-1,2-phenylene)bis(methylene))bis(sulfanediyl))bis(3-(3-chloro-4-fluorobenzyl)-1,2,3,4-tetrahydro-1,3,5-triazine)] | 15 | 6 | 19 | 18
20 | Fc1ccc(CN2CN=C(SCc3ccccc3CSC3=NCN(Cc4ccc(F)c(Cl)c4)CN3)NC2)cc1Cl [Compound 145, 1,2-Bis(((5-(3-Chloro-4-fluorobenzyl)-1,4,5,6-tetrahydro-1,3,5-triazin-2-yl)thio)methyl)benzene] | 69 | 18 | 40 | 12
